Measurements: patent publication US5008187A, “Antifungal fermentation product” (Merck & Co., Inc., priority 1988, dated 1991)
≈ marks a conversion by molar mass, not a printed value. Entries after “also recorded” stand apart in the source; their conditions may differ.

Legend:
[1] = system: filamentous fungi and yeast organisms; assay: antifungal activity (summary statement); assay type: cell-based; conditions: in words
Protocol: (§1) Minimum inhibiting concentration against representative fungal organisms may be seen in the results of tests carried out by the agar dilution method in which an aqueous suspension of the metabolite was solubilized by adding a small amount of methanol. Further dilutions were made employing water. The diluted samples were added to molten agar to produce final concentrations of 512 μg/ml and lower. The molten agar was yeast nitrogen base agar prepared by adding 1 part of sterile yeast nitrogen base agar to 9 parts 2% Difco agar.

bacteria = assay: antibacterial activity (summary statement); assay type: cell-based; conditions: in words, no data shown
Penicillium sp. = assay: agar dilution MIC; assay type: cell-based
Protocol: as §1

Cephalosporium sp. = assay: agar dilution MIC; assay type: cell-based; conditions: strain MF4641, yeast nitrogen base agar
Protocol: as §1

Aspergillus fumigatus = assay: agar dilution MIC; assay type: cell-based; conditions: strain MF4839, yeast nitrogen base agar
Protocol: as §1

Verticillium serrae = assay: agar dilution MIC; assay type: cell-based; conditions: strain MF3794, yeast nitrogen base agar
Protocol: as §1

Ceratocystis ulmi = assay: agar dilution MIC; assay type: cell-based; conditions: strain MF4042, yeast nitrogen base agar
Protocol: as §1

Candida pseudotropicalis = assay: agar dilution MIC; assay type: cell-based; conditions: strain MY1100, yeast nitrogen base agar
Protocol: as §1

A. flavus = assay: agar dilution MIC; assay type: cell-based; conditions: strain MF383, yeast nitrogen base agar
Protocol: as §1

[2] = system: Debaryomyces guilliermondi; assay: agar dilution MIC; assay type: cell-based; conditions: strain MY321, yeast nitrogen base agar
Protocol: as §1

Cryptococcus neoformans = assay: agar dilution MIC; assay type: cell-based
Protocol: as §1

Fusarium oxysporium = assay: agar dilution MIC; assay type: cell-based; conditions: strain MF4014, yeast nitrogen base agar
Protocol: as §1

C. rugosa = assay: agar dilution MIC; assay type: cell-based; conditions: strain MY1022, yeast nitrogen base agar
Protocol: as §1

Ustilago maydis = assay: agar dilution MIC; assay type: cell-based; conditions: strain MF1996, yeast nitrogen base agar
Protocol: as §1

Trichoderma sp. = assay: agar dilution MIC; assay type: cell-based; conditions: strain MF4064, yeast nitrogen base agar
Protocol: as §1

Cr. laurentii = assay: agar dilution MIC; assay type: cell-based
Protocol: as §1

Trichoderma lignorum = assay: agar dilution MIC; assay type: cell-based; conditions: strain MF3560, yeast nitrogen base agar
Protocol: as §1

C. tropicalis = assay: agar dilution MIC; assay type: cell-based; conditions: strain MY1012, yeast nitrogen base agar
Protocol: as §1

Cr. albidus = assay: agar dilution MIC; assay type: cell-based; conditions: strain MY1070, yeast nitrogen base agar
Protocol: as §1

Aspergillus niger = assay: agar dilution MIC; assay type: cell-based
Protocol: as §1

Scopulariopsi communis = assay: agar dilution MIC; assay type: cell-based; conditions: strain MF3769, yeast nitrogen base agar
Protocol: as §1

Cercospora beticola = assay: agar dilution MIC; assay type: cell-based; conditions: strain MF4608, yeast nitrogen base agar
Protocol: as §1

[3] = solubility in organic solvents; assay type: physicochemical; conditions: organic solvents such as methanol, ethanol, dimethylformamide, dimethyl sulfoxide, ethyl acetate

For CCCCCCC(C)CC(C)=CC(C=C(C)C=CC(O)C(C)(C)c1cc(O)c(C2OC(CO)CC(O)C2O)c(=O)o1)CO (centres unmarked) [Compound I], the antifungal activity [1] was “active against a moderately broad spectrum of filamentous fungi and yeast organisms; also recorded: excellent antifungal properties against many filamentous and many yeast organisms”, the antibacterial properties (bacteria) was “antibacterial properties” and the MIC (Penicillium sp.; strain MF5014, yeast nitrogen base agar) was 3.1 µg/mL (≈ 5.11 µM). The MIC (Penicillium sp.; strain MF5020, yeast nitrogen base agar) was 1.6 µg/mL (≈ 2.64 µM), the MIC (Cephalosporium sp.) was 12.5 µg/mL (≈ 20.6 µM) and the MIC (Aspergillus fumigatus) was 64 µg/mL (≈ 105 µM). The MIC (Verticillium serrae) was 25 µg/mL (≈ 41.2 µM), the MIC (Ceratocystis ulmi) was 25 µg/mL (≈ 41.2 µM) and the MIC (Candida pseudotropicalis) was 25 µg/mL (≈ 41.2 µM). The MIC (A. flavus) was 64 µg/mL (≈ 105 µM), the MIC [2] was 6.2 µg/mL (≈ 10.2 µM) and the MIC (Cryptococcus neoformans; strain MY1046, yeast nitrogen base agar) was 8 µg/mL (≈ 13.2 µM). For the same compound, the MIC (Cryptococcus neoformans; strain MY1050, yeast nitrogen base agar) was 32 µg/mL (≈ 52.7 µM), the MIC (Cryptococcus neoformans; strain MY1051, yeast nitrogen base agar) was 128 µg/mL (≈ 211 µM) and the MIC (Fusarium oxysporium) was 25 µg/mL (≈ 41.2 µM). For the same compound, the MIC (C. rugosa) was 25 µg/mL (≈ 41.2 µM), the MIC (Ustilago maydis) was 8 µg/mL (≈ 13.2 µM) and the MIC (Trichoderma sp.) was 1.6 µg/mL (≈ 2.64 µM). It also gave an MIC (Cr. laurentii; strain MY1073, yeast nitrogen base agar) of 6.2 µg/mL (≈ 10.2 µM), an MIC (Cr. laurentii; strain MY1074, yeast nitrogen base agar) of 8 µg/mL (≈ 13.2 µM) and an MIC (Cr. laurentii; strain MY1077, yeast nitrogen base agar) of 12.5 µg/mL (≈ 20.6 µM). For the same compound, the MIC (Trichoderma lignorum) was 6.2 µg/mL (≈ 10.2 µM), the MIC (C. tropicalis) was 25 µg/mL (≈ 41.2 µM) and the MIC (Cr. albidus) was 8 µg/mL (≈ 13.2 µM). The MIC (Aspergillus niger; strain MF11, yeast nitrogen base agar) was 1.6 µg/mL (≈ 2.64 µM), the MIC (Aspergillus niger; strain MF442, yeast nitrogen base agar) was 3.1 µg/mL (≈ 5.11 µM) and the MIC (Scopulariopsi communis) was 6.2 µg/mL (≈ 10.2 µM). The MIC (Cercospora beticola) was 4 µg/mL (≈ 6.59 µM) and the solubility [3] was “soluble”.
